Assay results published in patent US7632814B2, “HYD1 peptides as anti-cancer agents” (University of South Florida, priority 2006, dated 2009).
Blank lines part the entries; values can stand above or below the substance they belong to. Where no end group is shown, it is not given here. [ ]: non-standard residue; d: D form. 5(6)‑FAM = 5(6)-carboxyfluorescein

Columns and labels:
H929 cells [1] = assay: Lysosensor staining of acidic vesicles, confocal microscopy; assay type: cell-based; conditions: 100 μg/ml, six hours, compared to control cells
Description: Lysosensor green was used to detect acidic compartments and live cell imaging was performed by confocal microscopy. Shown is a representative figure. The experiment was repeated three independent times and similar results were obtained.
Lysosensor staining. 35 mm glass bottom microwell dishes were incubated with 10 ul Cell-tak (BD biosciences San Jose, Calif.) and 290 ul 0.5M sodium bicarbonate (Sigma) for 30 minutes. The plates were aspirated and 200,000H929 or 8226 cells were plated. Cells were then treated with either water (VC), 100 μg/ml HYD1 or 100 μg/ml HYD1S for 6 hours. After the 6-hour incubation, the plates were aspirated and washed once with warm media. Media containing 1 μM lysosensor DND-189 (Molecular Probes, Carlsbad Calif.) and 20 μM Hoechst 33342 (Molecular Probes) was added and samples were incubated for an additional 30 minutes. Samples were analyzed with a Leica DMI6000 inverted TCS SP5 confocal scanner (Leica Microsystems, Germany). 405 Diode and Argon laser lines were applied to excite the samples and tunable filters were used to minimize the crosstalk between fluorochromes. Gain, offset, and pinhole setting were identical for all samples within the treatment group. Image sections at […] were captured with photomultiplier detectors and maximum projections were prepared with the LAS AF software version 1.6.0 build 1016 (Leica Microsystems, Germany).

H929 cells [2] = assay: Electron microscopy of double membrane vesicles; assay type: cell-based; conditions: 100 μg/ml, 4 hours
Description: H929 cells were treated with either 100 µg/ml HYD1 (FIG. 24A) or HYD1S (FIG. 24B) for four hours and processed for electron microscopy as described in materials and methods.
Electron Microscopy. H929 cells were treated for four hours with either 100 μg/ml HYD1 or HYD1S. After peptide treatment, the samples were fixed overnight in 2.5% glutaraldehyde in 0.1M phosphate buffer, pH 7.2 overnight at four degrees. Following fixation, the cells were rinsed 2 times for 10 minutes each in 0.1M phosphate buffer, pH 7.2, at 4° C. The cells were loosely pelleted in microcentrifuge tubes at 500×G for 3 minutes. The buffer was removed from the cells and replaced with 1% osmium tetroxide in the above buffer at 4° C. The cells were resuspended and post-fixed for 1 hour, then loosely pelleted and rinsed in the above buffer. This step was repeated for a total of 3 rinses of 5 minutes each, with the cells being resuspended after each buffer change. Cells were dehydrated through a graded series of acetone, 30%, 50%, 70%, and 95% acetone in water, 5 minutes per change with loose pelleting at 750×G for 5 minutes, then resuspension for each step. The cells were then dehydrated through three changes of 100% acetone, 10 minutes per change, with a 5 minute pelleting step at 1000×G, followed by resuspension in each step. […]

8226 cells = assay: HS-5 co-culture (SF+A) model of drug resistance, melphalan apoptosis; assay type: cell-based; conditions: 8226 cells co-cultured with HS-5, 50 μg/ml peptide, with melphalan
Description: (§1) Co-culture model. HS-5/GFP cells were plated at a density of 500,000 cells per ml and incubated overnight. Myeloma cells were incubated with vehicle control (water), 50 μg/ml HYD1 or 50 μg/ml HYD1S 30 minutes prior to the addition of myeloma cells (400,000 cell/ml) to either control plates or plates containing HS-5 cells. Myeloma cells were incubated with HS-5 cells for three hours prior to the addition of melphalan. Apoptotic cells were measured in GFP negative myeloma cells, by annexin PE staining and FACS analysis (n=9). ANOVO was performed to determine significance between conditions.
(§2) Briefly, 8226 myeloma cells were pre-incubated with varying concentrations of either HYD1 or the scrambled HYD1S peptide for 30 minutes prior to allowing cells to attach to FN for two hours. Following two hours of cell adhesion, the amount of cells adherent to FN was measured. The next objective was to determine whether treatment of tumor cells with HYD1 results in potentiation of melphalan induced cell death in the BMS co-culture model (SF+A). […] For these studies, the HYD1 and HYD1S were pre-incubated with the […] for 30 minutes, and then cells and culture media containing the peptide were placed into the S-5 culture dish. Myeloma cells were co-cultured for an additional 3 hours with HS-5 cells before the addition of melphalan. Twenty-four hours after drug treatment, apoptosis was measured by Annexin V-PE positive events by FACS analysis. The HS-5 cells constitutively express GFP and thus it is possible to gate GFP negative cells only (myeloma cells) for the apoptotic analysis.

H929 cells [3] = assay: as above; assay type: cell-based; conditions: H929 cells co-cultured with HS-5, 50 μg/ml peptide, with melphalan
Description: as §1, §2

[4] = test system: phospho Pyk2 in H929 cells; assay: Phospho-Pyk2 levels in suspension culture (immunoblot); assay type: cell-based; conditions: H929 cells cultured in suspension
Excerpt: Based upon the observation that HYD1 increased melphalan induced apoptosis in suspension cultures, whether treatment with HYD1 inhibits phosphorylation of a downstream mediator of β1 integrin signaling (Pyk2) in suspension cultures was investigated.

[5] = test system: DU145 prostate cancer cells; conditions: DeRoock et al. 2001; cited from earlier work
β1 integrin = target: T1, β1 integrin (Homo sapiens, UniProt P05556); assay: Binding of peptide to the cell surface
T1 construct: endogenous in cells
Excerpt: Another aspect of the invention concerns a method of identifying modulators of peptide binding (a screen for molecules that displace peptide binding). Agents that are identified as being capable of competing with the HYD1 peptides of the invention for binding to β1 integrin may have utility as cytotoxic agents for research or therapy (e.g., for cancer treatment). The method comprising providing a candidate agent (such as a chemical compound, antibody, nucleic acid, or peptide); and determining whether the agent inhibits (e.g., disrupts, prevents, or interferes with), the ability of a HYD1 peptide of the invention (HYD1 or a fragment or variant thereof) to bind to β1 integrin on a cell surface (e.g., cancer cell surface) and/or inhibit β1 integrin mediated adhesion, in vitro or in vivo (e.g., in an animal model). Preferably, the cell is a cancer cell such as a myeloma cell or a cell of other cancer types (see, for example Table 1). Preferably, the peptide is labeled with a detectable moiety (e.g., a fluorescent tag, such as […]) to facilitate the determining step. Examples of controls that may be utilized in carrying out the screening method include, but are not limited to, unlabeled HYD1 peptides (HYD1, or a fragment or variant thereof); scrambled peptides (such as HYD1S); β1 integrin blocking antibody; and non-specific surface antigen binding antibody (such as CD138 for myeloma cells). Advantageously, using the screening assay, labeled HYD1 or fragments or variants thereof, can be used to screen candidates such as small molecules, on natural product libraries, in a rapid, high-throughput fashion. […] Fluorescence polarization (FP) analysis can be used to screen small molecule or natural product libraries for discovery of novel compounds that mimic the specific binding and potentially the biological activity of HYD1. The FP assay is based on the extent of depolarization of the free versus bond peptide, which can be accurately measured on commercially available FP plate readers. […] In summary, a high throughput screen (HTS) can be used to bind small molecules prior to the addition of an HYD1 probe and molecules of interest can be identified by displacement of bond peptide, with a corresponding increase in unbound peptide by FP analysis. An analogous high-throughput binding assay based on fluorescence polarization, which allows screening for small molecules that bind to the STAT3 SH2 domain, is described in Schust J. and Berg T., Anal Biochem., 2004 Jul. 1; 330(1):114-8. […]

Myeloma cells = assay: Apoptotic activity of HYD1 variants in myeloma cells (cell line not stated); assay type: cell-based
Description: Myeloma cells were plated at a density of 400,000 cells per ml in a 24 well plate. Cells were treated with the indicated dose of the peptide for 24 hours. Following 24 hrs of peptide exposure, apoptotic cells were detected using Annexin V staining and FACS analysis. Ten thousand events were analyzed by flow cytometry (Becton Dickinson, San Jose, Calif.). Experiments were performed in triplicate and repeated twice. Shown is a representative figure.

prostate tumor cell = assay: Cell adhesion supported by immobilized HYD1 fragments and variants; assay type: cell-based; conditions: truncation and alanine substitution of HYD1
Excerpt: Defining the minimal region of HYD1 necessary to potentiate drug-induced apoptosis in suspension and adherent cultures is of interest. Below is a study to determine the minimal HYD1 sequence required to block prostate tumor cell migration. Similar studies as those outlined below and using the same peptide sequences will be used to determine the minimal amino acid sequence required for potentiation of drug induced apoptosis.
To determine the minimal element of immobilized HYD1 required for cell adhesion, the N and C terminus was systematically truncated one amino acid at a time (FIG. 14A). Most of the adhesion activity was retained with the deletion of lys-glycine from the C-terminus. However, the peptide no longer supported cell adhesion if the next residue, tryptophan was removed. Deletion of the N-terminus on the other hand, was tolerated very well until the third residue, methionine, was removed, leading to gradual decrease in cell binding.

T1 sequence (P05556 21-798): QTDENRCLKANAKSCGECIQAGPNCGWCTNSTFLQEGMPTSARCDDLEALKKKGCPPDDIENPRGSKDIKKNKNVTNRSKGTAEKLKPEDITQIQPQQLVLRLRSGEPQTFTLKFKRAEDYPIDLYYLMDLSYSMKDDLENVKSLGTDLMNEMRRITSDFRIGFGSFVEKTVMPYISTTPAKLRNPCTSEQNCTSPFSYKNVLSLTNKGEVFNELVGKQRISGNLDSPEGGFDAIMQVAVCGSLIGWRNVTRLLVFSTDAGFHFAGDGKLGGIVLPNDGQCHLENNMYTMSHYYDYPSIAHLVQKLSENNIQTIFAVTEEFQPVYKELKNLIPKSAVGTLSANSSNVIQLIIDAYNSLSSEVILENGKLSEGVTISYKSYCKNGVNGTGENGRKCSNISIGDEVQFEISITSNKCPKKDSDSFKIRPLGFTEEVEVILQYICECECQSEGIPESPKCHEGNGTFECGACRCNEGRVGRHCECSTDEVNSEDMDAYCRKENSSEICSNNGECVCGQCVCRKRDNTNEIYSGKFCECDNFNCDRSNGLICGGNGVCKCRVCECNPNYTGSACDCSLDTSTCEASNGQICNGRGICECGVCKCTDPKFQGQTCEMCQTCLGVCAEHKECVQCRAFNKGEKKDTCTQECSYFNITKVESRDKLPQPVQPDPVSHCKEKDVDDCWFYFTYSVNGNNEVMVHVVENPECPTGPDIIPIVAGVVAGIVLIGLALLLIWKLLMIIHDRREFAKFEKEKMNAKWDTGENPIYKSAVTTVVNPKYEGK

Substance: wiksmkivkg ([dW][dI][dK][dS][dM][dK][dI][dV][dK]G) [HYD1S, reference compound]
number and size of acidic vesicles (H929 cells [1]): large vesicles noted with HYD1 treatment in both the lysosensor staining and EM analysis were not detected
formation of double membranes / vesicles (EM) (H929 cells [2]): small vesicles fused with lysosomes were observed
potentiation of melphalan-induced apoptosis in the SF+A model (8226 cells): but not the scrambled peptide (HYD1S) potentiates melphalan-induced cell death
potentiation of melphalan-induced apoptosis in the SF+A model (H929 cells [3]): but not the scrambled peptide (HYD1S) potentiates melphalan-induced cell death
phospho Pyk2 levels [4]: but not HYD1S reduces phospho Pyk2 levels
inhibition of cell adhesion to extracellular matrixes [5]: not to inhibit cell adhesion

binding to the cell surface (β1 integrin): binds to the cell surface
blocking of cell surface binding by β1 integrin antibody (β1 integrin): can be blocked
Substance: FAM-HYD1: HYD1 with R=5(6)-FAM (carboxyfluorescein) ({5(6)‑FAM}-[dK][dI][dK][dM][dV][dI][dS][dW][dK]G)
biological activity of conjugated HYD1 (Myeloma cells): retains biological activity

Substance: ikmvisw (IKMVISW; HYD1 fragment)
cell adhesion supported by immobilized peptide (prostate tumor cell): retained full cell adhesion activities
